Assay results taken from ChEMBL document CHEMBL1201862, “PubChem BioAssay data set” (2004).
Calls of active or inactive are those of the source. Cut-off read from the data, not from the text of the source, for most assays here: actives have a measured EC50 and inactives only a lower limit.

What was measured:
[1] = inhibitors of firefly luciferase expression or activity, dose response, H4 neuroglioma cells, luminescence (AID 1990); format: functional, cell-based
[2] = Luminescence Cell-Based Dose Response HTS to Identify Inhibitors of 5'UTR Stem-Loop Driven Prion Protein mRNA Translation in H4 Neuroglioblastoma Cells. [Related pubchem assays: 1827 (Project Summary), 1813 (Primary HTS)]; format: functional
[3] = inhibitors of SNCA 5'UTR-driven reporter translation, confirmation, H4 neuroglioma cells, luminescence (AID 1988); format: functional, cell-based
[4] = tested on: Streptococcus sp. 'group A'; assay: growth inhibition of control SK(-) GAS strain, dose response, counter-screen for streptokinase expression inhibitor project, luminescence, kanamycin, BacTiterGlo, confirmation (AID 1900); format: functional, organism-based
H9c2 = assay: cells; format: functional, cell-based; conditions: Rattus norvegicus, H9c2, Myocardium;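 note: confirmatory concentration-response retest of ultra-high-throughput screening hits for modulation of myocardial damage; cell death induced by hydrogen peroxide oxidative stress; compound pretreatment for 60 min then peroxide exposure for 2 h; potency is for protecting the cells against peroxide damage rather than for killing them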
Streptokinase A = target: T1, Streptokinase A (Streptococcus pyogenes serotype M1, UniProt P10520); assay: S. pyogenes streptokinase expression inhibitors, potency, dose response, plasminogen activation absorbance, OD405 (AID 1914); format: functional, Streptococcus pyogenes M1 GAS;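 note: secreted streptokinase activity via plasminogen activation per viability signal from cell pellet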
T1 sequence (P10520 whole entry): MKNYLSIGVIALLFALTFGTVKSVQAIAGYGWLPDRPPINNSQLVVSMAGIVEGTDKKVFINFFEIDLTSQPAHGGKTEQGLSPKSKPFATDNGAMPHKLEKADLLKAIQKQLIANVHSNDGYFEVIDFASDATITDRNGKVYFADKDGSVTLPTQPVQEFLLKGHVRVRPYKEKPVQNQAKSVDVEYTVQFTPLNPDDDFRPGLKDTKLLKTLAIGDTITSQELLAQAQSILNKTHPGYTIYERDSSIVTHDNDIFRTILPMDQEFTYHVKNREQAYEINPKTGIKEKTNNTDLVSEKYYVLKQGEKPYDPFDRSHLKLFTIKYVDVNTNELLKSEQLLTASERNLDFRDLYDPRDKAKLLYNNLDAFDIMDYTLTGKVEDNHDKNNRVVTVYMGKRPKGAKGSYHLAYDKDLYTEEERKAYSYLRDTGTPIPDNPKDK

Streptococcus = assay: Group A Streptococcus viability loss, dose response, counter-screen for streptokinase expression inhibitor project, luminescence, BacTiterGlo (AID 1915); format: functional, organism-based;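 note: potency for reduction of bacterial viability or growth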
[5] = target: T2, Sentrin-specific protease 7 (Homo sapiens, UniProt Q9BQF6); format: functional;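 note: Luminescence-based dose-response confirmation of ultra-high-throughput screening hits, measuring inhibition of SENP7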
T2 sequence (Q9BQF6 whole entry): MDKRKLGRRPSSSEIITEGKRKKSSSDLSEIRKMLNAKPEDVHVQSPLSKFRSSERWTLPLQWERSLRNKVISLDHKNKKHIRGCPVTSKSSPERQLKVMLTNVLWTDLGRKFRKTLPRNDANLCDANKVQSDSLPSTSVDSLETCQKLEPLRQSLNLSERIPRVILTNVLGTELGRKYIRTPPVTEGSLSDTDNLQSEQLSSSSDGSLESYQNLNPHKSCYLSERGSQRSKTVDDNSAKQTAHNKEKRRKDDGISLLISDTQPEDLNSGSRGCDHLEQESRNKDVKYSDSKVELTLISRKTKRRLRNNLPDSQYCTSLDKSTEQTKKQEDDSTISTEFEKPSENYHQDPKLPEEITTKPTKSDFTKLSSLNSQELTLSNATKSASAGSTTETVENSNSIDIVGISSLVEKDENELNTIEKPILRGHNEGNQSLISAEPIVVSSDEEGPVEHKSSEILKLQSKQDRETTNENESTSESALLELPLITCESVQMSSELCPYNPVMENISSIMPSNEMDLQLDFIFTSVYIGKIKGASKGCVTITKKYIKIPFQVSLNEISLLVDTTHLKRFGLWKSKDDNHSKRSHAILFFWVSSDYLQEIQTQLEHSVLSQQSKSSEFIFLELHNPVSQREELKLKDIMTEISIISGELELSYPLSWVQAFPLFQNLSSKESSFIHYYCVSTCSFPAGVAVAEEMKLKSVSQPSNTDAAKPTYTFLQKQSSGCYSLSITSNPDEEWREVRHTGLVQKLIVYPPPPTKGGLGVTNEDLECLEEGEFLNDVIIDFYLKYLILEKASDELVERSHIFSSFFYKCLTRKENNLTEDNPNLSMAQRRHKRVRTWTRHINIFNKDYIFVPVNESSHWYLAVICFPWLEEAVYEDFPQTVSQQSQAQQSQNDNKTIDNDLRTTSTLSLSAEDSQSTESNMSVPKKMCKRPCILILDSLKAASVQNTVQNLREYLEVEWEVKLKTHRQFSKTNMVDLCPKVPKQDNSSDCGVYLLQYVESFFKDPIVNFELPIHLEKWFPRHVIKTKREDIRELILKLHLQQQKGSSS

[6] = target: T3, Sentrin-specific protease 6 (Homo sapiens, UniProt Q9GZR1); format: functional;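 note: Luminescence-based dose-response confirmatory assay of SENP6 inhibition, following up an ultra-high-throughput screen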
T3 sequence (Q9GZR1 whole entry): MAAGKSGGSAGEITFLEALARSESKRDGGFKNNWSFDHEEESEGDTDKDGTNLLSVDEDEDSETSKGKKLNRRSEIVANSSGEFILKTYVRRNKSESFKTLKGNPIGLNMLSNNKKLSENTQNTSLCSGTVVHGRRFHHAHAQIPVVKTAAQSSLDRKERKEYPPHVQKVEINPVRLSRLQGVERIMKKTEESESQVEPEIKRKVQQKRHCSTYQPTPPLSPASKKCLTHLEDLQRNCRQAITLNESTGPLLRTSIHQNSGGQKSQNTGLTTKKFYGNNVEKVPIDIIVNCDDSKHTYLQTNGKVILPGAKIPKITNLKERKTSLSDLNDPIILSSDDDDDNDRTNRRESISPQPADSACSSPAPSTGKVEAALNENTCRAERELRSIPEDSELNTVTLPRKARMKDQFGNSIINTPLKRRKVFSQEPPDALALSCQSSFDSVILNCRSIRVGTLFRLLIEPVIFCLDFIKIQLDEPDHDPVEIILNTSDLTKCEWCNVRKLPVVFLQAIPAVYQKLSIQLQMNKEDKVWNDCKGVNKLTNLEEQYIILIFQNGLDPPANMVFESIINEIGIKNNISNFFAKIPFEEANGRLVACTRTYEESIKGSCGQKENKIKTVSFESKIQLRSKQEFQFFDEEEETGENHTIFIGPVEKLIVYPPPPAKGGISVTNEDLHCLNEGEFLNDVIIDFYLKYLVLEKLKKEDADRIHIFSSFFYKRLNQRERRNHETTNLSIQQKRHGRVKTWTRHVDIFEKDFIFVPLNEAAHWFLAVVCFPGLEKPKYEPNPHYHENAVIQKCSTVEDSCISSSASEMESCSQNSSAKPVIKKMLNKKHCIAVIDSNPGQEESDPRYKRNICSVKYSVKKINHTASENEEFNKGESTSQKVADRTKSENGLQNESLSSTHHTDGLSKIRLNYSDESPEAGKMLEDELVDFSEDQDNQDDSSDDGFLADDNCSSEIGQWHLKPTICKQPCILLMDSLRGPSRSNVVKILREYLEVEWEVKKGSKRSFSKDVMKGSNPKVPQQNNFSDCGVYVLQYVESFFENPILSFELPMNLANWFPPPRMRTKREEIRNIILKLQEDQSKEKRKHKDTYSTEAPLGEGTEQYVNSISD

[7] = target: T4, Sentrin-specific protease 8 (Homo sapiens, UniProt Q96LD8); format: functional;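 note: luminescence read-out of SENP8 inhibition, dose-response confirmation following an ultra-high-throughput screen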
T4 sequence (Q96LD8 whole entry): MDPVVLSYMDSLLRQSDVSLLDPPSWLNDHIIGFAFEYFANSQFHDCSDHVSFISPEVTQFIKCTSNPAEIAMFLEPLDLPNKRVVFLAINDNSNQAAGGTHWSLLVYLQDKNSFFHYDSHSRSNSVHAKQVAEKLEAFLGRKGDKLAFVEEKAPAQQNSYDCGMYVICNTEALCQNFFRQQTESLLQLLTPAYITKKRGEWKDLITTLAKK

[8] = target: T5, Microphthalmia-associated transcription factor (Homo sapiens, UniProt O75030); assay: TRPM1 promoter luciferase signal decrease, dose response, MITF inhibitor project, cell-based, SK-MEL-5, cherry-picked, set 3 (AID 493073); format: functional
T5 sequence (O75030 whole entry): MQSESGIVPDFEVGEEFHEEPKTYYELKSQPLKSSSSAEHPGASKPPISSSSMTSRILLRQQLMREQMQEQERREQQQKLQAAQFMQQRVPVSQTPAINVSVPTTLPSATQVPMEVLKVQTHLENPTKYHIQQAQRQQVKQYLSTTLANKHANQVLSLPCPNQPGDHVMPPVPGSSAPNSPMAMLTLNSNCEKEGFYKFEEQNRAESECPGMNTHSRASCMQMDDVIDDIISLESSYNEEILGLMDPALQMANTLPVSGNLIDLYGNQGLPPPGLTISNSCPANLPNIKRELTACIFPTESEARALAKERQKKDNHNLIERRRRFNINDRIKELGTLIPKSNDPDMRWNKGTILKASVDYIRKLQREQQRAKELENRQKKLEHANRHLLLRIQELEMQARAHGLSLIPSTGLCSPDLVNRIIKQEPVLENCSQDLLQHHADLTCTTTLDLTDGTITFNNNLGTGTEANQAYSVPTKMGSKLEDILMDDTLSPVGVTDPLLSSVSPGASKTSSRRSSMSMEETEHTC

[9] = target: T6, Corticotropin-releasing factor receptor 2/Corticotropin-releasing factor-binding protein (Homo sapiens, UniProt P24387+Q13324); assay: activators of CRF receptor 2 with binding protein – uHTS hits, confirmation (AID 602473); format: functional; conditions: read-out: EC50_Mean
T6 sequence (Q13324 whole entry): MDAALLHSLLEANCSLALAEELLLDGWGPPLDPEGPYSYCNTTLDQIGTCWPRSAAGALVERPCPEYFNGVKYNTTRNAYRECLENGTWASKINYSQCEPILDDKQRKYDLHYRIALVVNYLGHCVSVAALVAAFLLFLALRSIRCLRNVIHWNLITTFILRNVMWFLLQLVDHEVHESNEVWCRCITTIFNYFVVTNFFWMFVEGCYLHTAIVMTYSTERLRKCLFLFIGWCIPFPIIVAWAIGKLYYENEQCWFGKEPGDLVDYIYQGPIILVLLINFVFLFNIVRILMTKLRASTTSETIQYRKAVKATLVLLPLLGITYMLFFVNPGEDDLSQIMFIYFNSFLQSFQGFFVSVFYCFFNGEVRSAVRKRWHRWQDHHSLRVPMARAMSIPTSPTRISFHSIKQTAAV
T6 sequence (P24387 whole entry): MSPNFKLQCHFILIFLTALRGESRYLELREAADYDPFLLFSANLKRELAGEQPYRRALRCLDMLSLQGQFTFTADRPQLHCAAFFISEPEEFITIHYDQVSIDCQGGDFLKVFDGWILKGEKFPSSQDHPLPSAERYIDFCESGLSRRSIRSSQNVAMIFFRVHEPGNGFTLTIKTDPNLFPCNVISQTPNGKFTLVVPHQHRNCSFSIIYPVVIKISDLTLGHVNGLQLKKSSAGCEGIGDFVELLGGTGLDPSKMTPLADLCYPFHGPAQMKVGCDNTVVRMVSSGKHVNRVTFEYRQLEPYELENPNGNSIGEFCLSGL

With `CC(NC(=O)COC(=O)c1ccc2c(c1)S(=O)(=O)N=C1CCCCCN12)C12CC3CC(CC(C3)C1)C2` (stereo not drawn) the EC50 [1] was > 120 µM (not active), the EC50 [2] was > 120 µM (not active) and the EC50 [3] was 15.5 µM (active).

With `Cc1cc(C)c(C(=O)CC(=O)c2ccccc2Cl)c(O)c1` the EC50 [4] was 7.46 µM (active), the IC50 (H9c2) was 11.7 µM (active) and the EC50 (Streptokinase A) was > 150 µM (not active). For the same compound, the EC50 (Streptococcus) was 23.5 µM (active).

In the case of `O=C(CCc1nnc(-c2ccc(-c3ccccc3)cc2)o1)NCCc1ccccn1`, the EC50 [2] is reported as 21.4 µM (active).

In the case of `Cn1c(/C(C#N)=C/c2ccc(O)cc2)nc2ccccc21`, the IC50 [5] is reported as 12 µM (active), the IC50 [6] is reported as 28.3 µM (active) and the IC50 [7] is reported as 45 µM (active).

In the case of `Cc1onc(-c2ccccc2Cl)c1C(=O)NC(=S)Nc1ccc(C(C)(C)C)cc1`, the EC50 [1] is reported as > 120 µM (not active), the EC50 [2] is reported as > 120 µM (not active) and the EC50 [3] is reported as 107 µM (active).

In the case of `Cc1c(CCC(=O)N2CCC[C@H]2C(=O)O)c(=O)oc2c(C)c3oc4c(c3cc12)CCCC4`, the EC50 [1] is reported as 15.9 µM (active), the EC50 [2] is reported as 16.2 µM (active) and the EC50 [3] is reported as 14 µM (active).

In the case of `COc1cccc(-n2nc3c(S)nnc(C)c3c2C)c1`, the EC50 [1] is reported as 16.2 µM (active), the EC50 [2] is reported as > 120 µM (not active) and the EC50 [3] is reported as > 120 µM (not active).

In the case of `COc1ccccc1N1C(=O)N(C(C)=O)C2C1Nc1ccccc1N2C` (stereo not drawn), the AC50 [8] is reported as 10.5 µM (active).

In the case of `O=C(Nc1ccc(CN2CCOCC2)cc1)c1ccc(-c2cccc([N+](=O)[O-])c2)o1`, the IC50 (H9c2) is reported as > 79 µM (inactive).

With `Cc1sc2nc(COC(=O)Cc3ccccc3)nc(O)c2c1C` the IC50 (H9c2) was 23.4 µM (active).

With `COc1cc2c(cc1OC)C(SC)=NC1(CCCC1)C2` the AC50 [8] was 9.44 µM (active).

In the case of `Cc1ccc(CNc2cc(-c3nn4c(C)nnc4s3)ccc2C)s1`, the EC50 [1] is reported as 9.69 µM (active), the EC50 [2] is reported as 56.1 µM (active) and the EC50 [3] is reported as 22.5 µM (active).

For `COc1ccccc1NS(=O)(=O)c1cc(NC(=O)CCc2nc(O)c3ccccc3n2)ccc1C`, the IC50 (H9c2) was > 79 µM (inactive).

In the case of `COc1ccccc1CN(C(=O)CNC(=O)c1ccco1)C(C(=O)NCC1CCCO1)c1ccccc1` (stereo not drawn), the IC50 (H9c2) is reported as > 79 µM (inactive).

For `Nc1ccc(-c2cc3ccccc3c(=O)o2)cc1`, the AC50 [8] was 0.293 µM (active).

With `CCOC(=O)C1=C(NC(=O)c2oc3ccccc3c2COC)Nc2ccccc2N=C1C` the IC50 (H9c2) was > 79 µM (inactive).

With `CCCCN1CC(COCc2ccccc2)Oc2cccc(OCCN3C(=O)[C@@H]4[C@H](C3=O)C3C=C[C@H]4C3)c2S1(=O)=O` (stereo partly drawn) the EC50 [9] was 5.15 µM (active) and the IC50 (H9c2) was > 79 µM (inactive).

In the case of `O=C(N/N=C/c1ccccn1)c1cc(-c2ccc(Cl)s2)n[nH]1`, the IC50 (H9c2) is reported as > 79 µM (inactive).

For `COc1cc(C(=O)N/N=C/c2ccc(OC(=O)c3ccccc3Cl)cc2)ccc1O`, the IC50 (H9c2) was > 79 µM (inactive).

In the case of `COc1cccc(/C=N/NC(=O)N/N=C/c2cccc(OC)c2O)c1O`, the EC50 [1] is reported as 15.5 µM (active), the EC50 [2] is reported as > 120 µM (not active) and the EC50 [3] is reported as 9.36 µM (active).
